Experimental findings from ChEMBL document CHEMBL1151088 (1996) are described below.

What all share (type): functional
The subject of test [1] is Staphylococcus aureus. As to the kind of experiment: In vitro antimicrobial activity against penicillin sensitive Staphylococcus aureus 663.
The test system of test [2] is Staphylococcus aureus. As to the kind of experiment: In vitro antimicrobial activity against methicillin resistant Staphylococcus aureus 1131.
Test [3] has as its system Staphylococcus aureus. As to the kind of experiment: In vitro antimicrobial activity against penicillin resistant Staphylococcus aureus 853.
Test [4] deals with Staphylococcus epidermidis. As to the kind of experiment: In vitro antimicrobial activity against Staphylococcus epidermidis.
Test [5] deals with Candida albicans. Kind of test: In vitro antimicrobial activity against Candida albicans.
The test system of test [6] is Saccharomyces cerevisiae. As to the kind of experiment: In vitro antimicrobial activity against Saccharomyces cerevisiae.
For test [7], the system named is Bacillus cereus. Kind of test: In vitro antimicrobial activity against Bacillus cereus.
In test [8] the test system is Escherichia coli. As to the kind of experiment: In vitro antimicrobial activity against Escherichia coli 182+PMBN.
Test [9] deals with Acholeplasma laidlawii. Kind of test: In vitro antimicrobial activity against Acholeplasma laidlawii.

Values after ≈ are worked out from the molar mass of the structure shown.

The term MIC denotes the lowest concentration that inhibits growth of the organism. A low value points to greater potency. Regarding `CCCOc1c2cccc1Cc1cc3cc(c1OCCC)Cc1cccc(c1OCCC)Cc1cc(cc(c1OCCC)C2)C(=O)N[C@@H](C)C(=O)NCCN(C(=O)OC(C)(C)C)CCNC(=O)[C@H](C)NC3=O`, the MIC in test [1] was 64 µg/mL (≈ 64.6 µM); in test [2] it was 64 µg/mL (≈ 64.6 µM); in test [3] it was above 64 µg/mL; in test [4], 32 µg/mL (≈ 32.3 µM).
With `CCCOc1c2cccc1Cc1cc3cc(c1OCCC)Cc1cccc(c1OCCC)Cc1cc(cc(c1OCCC)C2)C(=O)N[C@H](C)C(=O)NCCNCCNC(=O)[C@@H](C)NC3=O`, the MIC in test [1] was determined as 8 µg/mL (≈ 8.99 µM); in test [2], 4 µg/mL (≈ 4.49 µM); in test [3], 8 µg/mL (≈ 8.99 µM); in [4], 8 µg/mL (≈ 8.99 µM).
`CCCOc1c2cccc1Cc1cc3cc(c1OCCC)Cc1cccc(c1OCCC)Cc1cc(cc(c1OCCC)C2)C(=O)N[C@@H](C)C(=O)NCCNCCNC(=O)[C@H](C)NC3=O`: the MIC was above 128 µg/mL in [5]; 8 µg/mL (≈ 8.99 µM) in [1]; 4 µg/mL (≈ 4.49 µM) in [2]; above 128 µg/mL in [6]; 16 µg/mL (≈ 18 µM) in test [7]; 32 µg/mL (≈ 35.9 µM) in [8]. The minimal inhibitory concentration (MIC) was above 128 µg/mL in test [9], 16 µg/mL (≈ 18 µM) in test [3] and 4 µg/mL (≈ 4.49 µM) in [4].
On to `CCCOc1c2cccc1Cc1cc3cc(c1OCCC)Cc1cccc(c1OCCC)Cc1cc(cc(c1OCCC)C2)C(=O)N[C@@H](C)C(=O)N[C@@H](C)C(=O)NCCNCCNC(=O)[C@H](C)NC(=O)[C@@H](C)NC3=O` [VANCOMYCIN MIMIC], for which the minimal inhibitory concentration (MIC) in [1], in [2], in [3] and in test [4] was 32 µg/mL (≈ 31 µM) each time.
In the case of `CN[C@H](CC(C)C)C(=O)N[C@H]1C(=O)N[C@@H](CC(N)=O)C(=O)N[C@H]2C(=O)N[C@H]3C(=O)N[C@H](C(=O)N[C@H](C(=O)O)c4cc(O)cc(O)c4-c4cc3ccc4O)[C@H](O)c3ccc(c(Cl)c3)Oc3cc2cc(c3O[C@@H]2O[C@H](CO)[C@@H](O)[C@H](O)[C@H]2O[C@H]2C[C@](C)(N)[C@H](O)[C@H](C)O2)Oc2ccc(cc2Cl)[C@H]1O` [VANCOMYCIN], the minimal inhibitory concentration (MIC) in test [5] is above 128 µg/mL; in test [6] it was above 128 µg/mL; in [7] it was 2 µg/mL (≈ 1.38 µM); in [9] it was above 128 µg/mL.
